In patent publication US20080267948A1, “Croos-B Structure Binding Compounds” (priority 2005, published 2008):
“Also recorded” adds a separate entry of the source.

Tests used:
[1] = information found on the www, search completed Spring 2006; cited from earlier work
Aβ = biological target: T1, Aβ (Homo sapiens, UniProt P05067, E693Q); experiment: Binding of Aβ from solution to immobilized small compounds; details: Greiner Microlon, coat 100 μg/ml, Aβ 100 μg/ml
T1 construct: Lyophilized human amyloid-β(1-40) with E22Q mutation ‘Dutch type’; purchased Peptide facility, Dutch Cancer Institute, Amsterdam; host or cells: synthetic peptide
Experimental: To test the ability of the twelve selected compounds (see Table 7) to bind to misfolded proteins, […] Greiner Microlon high binding plates, Nunc amino Immobilizer plates and Nunc Maxisorp plates. Compounds were coated in 100 mM NaHCO3 pH 9.6, 50 μl/well, 1 h at room temperature with agitation. As a control, wells were coated with buffer only. After blocking of the plates, wells were overlayed with solutions of 0.1/1/10 μg/ml Hb-AGE or 10/100 μg/ml Aβ, in binding buffer (PBS/0.1% Tween20). After washing, binding of Hb-AGE was assessed by overlaying wells with 1 μg/ml hybridoma antibody 4B5, which binds to glycations(^2), followed by RAMPO. Binding of Aβ was visualized using 500× diluted anti-Aβ antibodies (mouse antibody beta-amyloid Clone 6F/3D #M0872, lot 00003503, DAKOCytomation; β-amyloid (H-43) SC-9129, 200 μg/ml rabbit polyclonal IgG, Santa Cruz Biotechnology) and RAMPO/SWARPO in a 1:1 ratio. Finally, wells were overlayed with OPD/H2O2 solution, and H2SO4, before absorbance readings at 490 nm.

[2] = test system: misfolded proteins (Hb-AGE, Aβ); experiment: Binding of misfolded proteins from solution to immobilized small compounds (overall); details: compounds coated on ELISA plates, Hb-AGE or Aβ in solution
Experimental: To test the ability of the twelve selected compounds (see Table 7) to bind to misfolded proteins, the compounds were immobilized at 10/100/1000 μg/ml in the wells of 96-wells Greiner Microlon high binding plates, Nunc amino Immobilizer plates and Nunc Maxisorp plates. Compounds were coated in 100 mM NaHCO3 pH 9.6, 50 μl/well, 1 h at room temperature with agitation. As a control, wells were coated with buffer only. After blocking of the plates, wells were overlayed with solutions of 0.1/1/10 μg/ml Hb-AGE or 10/100 μg/ml Aβ, in binding buffer (PBS/0.1% Tween20). After washing, binding of Hb-AGE was assessed by overlaying wells with 1 μg/ml hybridoma antibody 4B5, which binds to glycations(^2), followed by RAMPO. Binding of Aβ was visualized using 500× diluted anti-Aβ antibodies (mouse antibody beta-amyloid Clone 6F/3D #M0872, lot 00003503, DAKOCytomation; β-amyloid (H-43) SC-9129, 200 μg/ml rabbit polyclonal IgG, Santa Cruz Biotechnology) and RAMPO/SWARPO in a 1:1 ratio. Finally, wells were overlayed with OPD/H2O2 solution, and H2SO4, before absorbance readings at 490 nm.

ovalbumin = biological target: T2, ovalbumin (Gallus gallus, UniProt P01012); experiment: Transmission electron microscopy of ovalbumin heated in the presence of small compounds; parameters: species or system chicken; details: 1 mg/ml ovalbumin heated with 1 mg/ml compound
T2 construct: purchased Sigma A5503
T2 sequence (P01012 1-386): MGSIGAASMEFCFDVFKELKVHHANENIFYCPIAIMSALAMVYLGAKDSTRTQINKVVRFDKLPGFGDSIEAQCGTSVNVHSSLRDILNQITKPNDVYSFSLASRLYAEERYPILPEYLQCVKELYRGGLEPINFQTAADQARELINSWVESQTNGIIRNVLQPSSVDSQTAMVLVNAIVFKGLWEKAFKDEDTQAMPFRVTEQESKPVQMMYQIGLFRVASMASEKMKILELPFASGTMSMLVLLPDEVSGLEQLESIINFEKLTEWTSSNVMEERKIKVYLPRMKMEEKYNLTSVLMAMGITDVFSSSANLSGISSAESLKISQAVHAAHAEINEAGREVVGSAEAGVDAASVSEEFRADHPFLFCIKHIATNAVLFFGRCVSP
Outline: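 Ovalbumin at 1 mg/ml was applied to carbon-coated Formvar copper grids, washed with PBS and water, then stained 2 min in 2% methylcellulose with 0.4% uranyl acetate, pH 4. Grids were dried and imaged by TEM at 80 kV.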

[3] = biological target: T3, heat-denatured misfolded ovalbumin (DOVA) (Gallus gallus, UniProt P01012); experiment: ELISA binding of tPA to immobilized misfolded ovalbumin after pre-incubation with compounds; parameters: species or system chicken; details: misfolded OVA first overlayed with compound (concentration series), then tPA
T3 construct: purchased Sigma A5503
T3 sequence (P01012 2-386 limits assumed): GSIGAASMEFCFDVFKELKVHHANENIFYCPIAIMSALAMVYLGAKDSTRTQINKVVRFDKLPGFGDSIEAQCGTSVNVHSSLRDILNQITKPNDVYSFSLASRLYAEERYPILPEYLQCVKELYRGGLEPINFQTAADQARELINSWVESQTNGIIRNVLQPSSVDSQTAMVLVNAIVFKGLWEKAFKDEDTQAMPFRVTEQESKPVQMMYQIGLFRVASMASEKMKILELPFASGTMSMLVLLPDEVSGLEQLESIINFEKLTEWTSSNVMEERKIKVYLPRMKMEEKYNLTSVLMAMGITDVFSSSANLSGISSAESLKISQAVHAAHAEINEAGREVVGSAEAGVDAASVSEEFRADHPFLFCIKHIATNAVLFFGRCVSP
Experimental: Compounds were now diluted 10× in PBS/0.1% Tween20 (500 μg/ml compound). […] With this approach a further selection of the compounds was achieved. Now, compounds that at least interact with HB-AGE are selected. With the selection, similar binding assays are performed with misfolded OVA and Aβ. Finally, concentration series of the selected compounds are used in the binding studies.

tPA/plasminogen = biological target: T4, tPA/plasminogen (Homo sapiens, UniProt P00750); experiment: tPA/plasminogen activation by OVA heated in the presence of compounds (substrate PNAPEP1751); format: biochemical; details: 25 μg/ml OVA, 25 μg/ml compound, […] DMSO
T4 construct: purchased Boehringer Ingelheim Actilyse
Outline: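 Ovalbumin heated alone in PBS/1% DMSO (positive control) or with compounds at 1 mg/ml, then used 40-fold diluted in a tPA/plasminogen activation assay; buffer without OVA as negative control. Chromogenic substrate conversion read at 405 nm, with compound interference at 405 nm checked; signals related to control.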

heat-denatured ovalbumin = biological target: T5, heat-denatured ovalbumin (Gallus gallus, UniProt P01012); experiment: Thioflavin T fluorescence of ovalbumin and small compounds; parameters: species or system chicken; details: 1 mg/ml compound, 1 mg/ml OVA
T5 construct: purchased Sigma A5503
T5 sequence (P01012 1-386): T2 sequence (P01012 1-386)
Outline: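 Heat-denatured ovalbumin at 1 mg/ml in PBS, alone, with 1% v/v DMSO or with 1 mg/ml compound (also heat-denatured after compound addition), mixed 1:9 with 25 μM ThT in 50 mM glycine pH 9.0. Fluorescence read in duplicate at 435 nm excitation, 485 nm emission.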

tPA = tPA (Homo sapiens, UniProt P00750); experiment: Plasminogen activation assay (tPA-mediated conversion of Plg to plasmin); format: biochemical; parameters: purchased Boehringer-Ingelheim Actilyse; details: 100 μg ml^−1 protein or peptide, 400 pM tPA, substrate S-2251
Experimental: Plasmin (Plm) activity was assayed as described^4. Peptides and proteins that were tested for their stimulatory ability were used at 100 μg ml^−1, unless stated otherwise. […] Chromogenic substrate S-2251 (Chromogenix, Instrumentation Laboratory SpA, Milano, Italy) was used to measure Pls activity.
Purification of β2-glycoprotein I (β2GPI) was performed according to established methods^15,16. Recombinant human β2GPI was made using insect cells and purified as described^15. Plasma derived β2GPI as used in a factor XII ELISA, the Plg-activation assay and in the anti-phospholipid syndrome antibody ELISA (see below), was purified from fresh human plasma as described^16. […]
Solutions of fibrin peptide FP6, NH2—IDIKIR-COOH (Peptide facility, Dutch Cancer Institute, Amsterdam, the Netherlands) were prepared in various ways. […] Separate samples were prepared similarly and analyzed by electron spray ionization mass spectrometry (ESI-MS) to obtain information on the distribution of the peptide over putatively present oligomers (Dr C. Versluis, Department of Biomolecular Mass Spectrometry, Bijvoet Center for Biomolecular Research, Utrecht University, Utrecht, The Netherlands). […] Micrographs were recorded at 80 kV, at suitable magnifications on a JEM-1200EX electron microscope (JEOL, Japan).

T4 sequence (P00750 36-562): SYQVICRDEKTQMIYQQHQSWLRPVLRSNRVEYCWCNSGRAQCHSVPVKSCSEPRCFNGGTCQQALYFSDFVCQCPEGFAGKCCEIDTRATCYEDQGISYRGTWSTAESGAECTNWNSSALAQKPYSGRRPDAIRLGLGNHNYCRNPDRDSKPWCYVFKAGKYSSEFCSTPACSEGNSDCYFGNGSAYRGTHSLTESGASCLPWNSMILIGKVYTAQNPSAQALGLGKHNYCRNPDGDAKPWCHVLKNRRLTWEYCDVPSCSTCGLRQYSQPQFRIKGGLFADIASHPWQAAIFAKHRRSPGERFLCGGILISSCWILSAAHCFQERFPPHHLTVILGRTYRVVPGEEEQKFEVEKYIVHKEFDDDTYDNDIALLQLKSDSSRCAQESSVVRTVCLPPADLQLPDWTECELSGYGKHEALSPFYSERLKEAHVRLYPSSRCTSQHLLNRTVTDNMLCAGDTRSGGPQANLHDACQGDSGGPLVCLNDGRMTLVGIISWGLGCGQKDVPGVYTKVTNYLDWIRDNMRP
tPA, sequence (P00750 36-562): as above

Molecule | Use or activity in vitro/in vivo [1] | Signal (a.u.) (Aβ) | capture of misfolded protein from solution by immobilized compound [2] | appearance of ovalbumin heated in the presence of compound on TEM image (ovalbumin) | influence on tPA binding to immobilized misfolded OVA [3] | influence on tPA/plasminogen activation by OVA pre-heated in the presence of compound (tPA/plasminogen) | influence on Thioflavin T fluorescence with misfolded OVA (heat-denatured ovalbumin) | stimulation of tPA-mediated conversion of Plg to plasmin (tPA)
COc1cc2c(C=O)c3c4c(cc(OC)c(OC)c4c2cc1OC)CCN3C [compound 214, dehydroglaucine derivative] | inhibitory effect on lipopolysaccharide (LPS)-induced; also recorded: protection of plants from invasion by micro-organisms; also recorded: antimicrobial activity; also recorded: decrease in the blood pressure after applying intravenously; also recorded: bronchoconstrictor effect; also recorded: inhibitory action on the central nervous system | 0.14 | Capture of misfolded protein from solution | Smaller but more dense aggregates than in Control | Stimulated tPA binding to immobilized misfolded protein | Inhibition of tPA/plasminogen activation by OVA pre-heated | Inhibition of Thioflavin T fluorescence with misfolded OVA | 
H-IDIKIR-OH [FP6, reference compound] |  |  |  |  |  |  |  | activates tPA in the chromogenic plasmin activity assay
